Experimental findings from patent US20230416245A1, “ADENOSINE ANALOGS FOR THE TREATMENT OF DISEASE” (BIOINTERVENE, INC., priority 2020, published 2023) are described below.

Each structure is given as a SMILES string. A value given as a limit tells only on which side of the number the result lay.

Chain of human adenosine A3 receptor (P0DMS8 whole entry): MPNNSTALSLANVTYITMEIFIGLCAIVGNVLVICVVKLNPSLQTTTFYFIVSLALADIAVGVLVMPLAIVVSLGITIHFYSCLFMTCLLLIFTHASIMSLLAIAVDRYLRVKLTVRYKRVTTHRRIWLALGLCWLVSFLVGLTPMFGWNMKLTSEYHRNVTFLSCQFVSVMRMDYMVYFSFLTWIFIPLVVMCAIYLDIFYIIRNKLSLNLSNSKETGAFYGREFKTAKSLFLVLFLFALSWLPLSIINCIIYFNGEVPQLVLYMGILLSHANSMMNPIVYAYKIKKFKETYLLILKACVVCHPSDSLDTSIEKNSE

The target of the assay is human adenosine A3 receptor (Homo sapiens (Human), UniProt P0DMS8). The experiment in a line: Adenosine receptor binding assay ([125I]-AB-MECA competition). The note with it: inhibition of 0.15 nM [125I]-AB-MECA binding, membranes of cells expressing human A3 receptor; read-out: hA3 Ki: Ki. An excerpt:
Example 30: Adenosine Receptor Binding Assay
Materials and Reference Compounds: [^125I]-AB-MECA and [^3H]CCPA are both obtained from Amersham Biosciences (Little Chalfont, UK). IB-MECA are obtained from Tocris (Bristol, UK) and N6-cyclopentyl adenosine (CPA) is obtained from Sigma-Alrich (Poole, UK). Cell culture media, G418 and hygromycin are obtained from Invitrogen (Paisley, UK). Fetal calf serum is obtained from Perbio Science (Cheshire, UK). All other reagents are obtained from Fisher Chemicals (Loughborough, UK).
The method followed is that of Yates L, Clark J H, Martin T J, James S, Broadley K J, Kidd E J. Radioligand binding and functional responses of ligands for human recombinant adenosine A3 receptors. Auton Autacoid Pharmacol. 2006; 26(2):191-200. Cells stably transfected with the human adenosine A3 or A1 receptor are grown in Dulbecco's modified Eagles medium with nutrient mixture F12 containing NaHCO3 and Glutamax. Media is supplemented with 10% fetal calf serum, geneticin (G418; 0.67 mg/mL), hygromycin (500 μg/mL) and adenosine deaminase (1 U/mL). Cells are maintained at 37° C. with 5% CO2 in air. Cells are harvested and homogenized in ice-cold Tris buffer [50 mM Tris, 150 mM NaCl, 1 mM ethylenediaminetetraacetic acid (EDTA), pH 7.4] supplemented with the peptidase inhibitors, 4-(2-aminoethyl)benzenesulfonylfluoride (1 mM) and bacitracin (0.1 mg/mL), using a Polytron homogenizer (3×10 s bursts). The homogenate was spun for 10 min (4° C.) at 500 g. The supernatant is retained and the pellet is re-suspended in the buffer, homogenized and spun as above. The combined supernatants are centrifuged for 15 min (4° C.) at 48,000 g. The resultant pellet is re-suspended in the buffer and centrifuged for a second time at 48,000 g. The membrane pellet is then suspended in Tris buffer containing no peptidase inhibitors or adenosine deaminase and stored at −80° C. at a protein concentration of 1 mg/mL.
Binding Assays: Radioligand-binding assays were performed using the adenosine A3 receptor agonist [^125I]-AB-MECA and the A1 receptor agonist [^3H]CCPA. Binding assays were conducted in a total volume of 100 μL containing a 50 mM Tris, pH 7.4 buffer with or without 10 mM MgCl2, 20 μg membranes and either 0.15 nM [^125I]-AB-MECA (for the A3 receptor) or 1 nM [^3H]CCPA (for the A1 receptor). Assays were conducted at room temperature for 60 min (A1 receptor) or 120 min (A3 receptor) and terminated by the addition of 2 ml of ice-cold wash buffer (50 mM Tris, pH 7.4 with or without 10 mM MgCl2) and rapid filtration over 0.03% polyethylenimine-treated Whatman GF/C filters using a Brandel cell harvester (Semat International Ltd., St Albans, UK). Filters were then washed three times with 2 ml of ice-cold buffer. The filter-bound radioactivity were counted using a Compugamma counter (LKB Wallac, Turku, Finland). Competition experiments were performed to investigate the ability of reference compounds and embodiments of the invention to inhibit [^125I]-AB-MECA binding. Non-specific binding were determined using the respective compound at its highest concentration.
Data Analysis: The Kd and Bmax values for binding data were calculated based upon the molar amounts of bound and free [^125I]-AB-MECA. […] IC50 and Ki values and Hill slopes for inhibition of the radioligand binding by the compounds of the invention were calculated from the ligand competition curves using the Excel spreadsheet and the Kd value calculated for either [^125I]-AB-MECA or [^3H]CCPA. The results were expressed as a percent of control specific binding and as a percent inhibition of control specific binding obtained in the presence of the compounds of the invention. The IC50 values (concentration causing a half-maximal inhibition of control specific binding) and Hill coefficients (nH) were determined by non-linear regression analysis of the competition curves generated with mean replicate values using Hill equation curve fitting: […]
As usually defined, the Ki is a measure of affinity in units of concentration, obtained from inhibition or displacement. Turning to `O[C@@H]1[C@H](O)[C@@H]2C[C@@H]2[C@H]1n1cnc2c(NCC(F)F)cc(Cl)nc21` [Compound 40, (1R,2R,3S,4R,5S)-4-(5-chloro-7-((2,2-difluoroethyl)amino)-3H-imidazo[4,5-b]pyridin-3-yl)bicyclo[3.1.0]hexane-2,3-diol], the inhibition constant Ki was found to be 2 nM.

Turning to `Cc1c(Cl)nc2c(ncn2[C@H]2[C@H](O)[C@H](O)[C@@H]3C[C@@H]32)c1NCC(F)F` [Compound 60, (1R,2R,3S,4R,5S)-4-(5-chloro-7-((2,2-difluoroethyl)amino)-6-methyl-3H-imidazo[4,5-b]pyridin-3-yl)bicyclo[3.1.0]hexane-2,3-diol], the inhibition constant Ki was greater than 9400 nM.

As to `CCNc1cc(C#CC2CC2)nc2c1ncn2[C@H]1[C@H](O)[C@H](O)[C@@H]2C[C@@H]21` [Compound 46, (1R,2R,3S,4R,5S)-4-(5-(cyclopropylethynyl)-7-(ethylamino)-3H-imidazo[4,5-b]pyridin-3-yl)bicyclo[3.1.0]hexane-2,3-diol], the inhibition constant (Ki) came to 21.3 nM.

Turning to `O[C@@H]1[C@H](O)[C@@H]2C[C@@H]2[C@H]1n1cnc2c(NCC(F)F)nc(Cl)nc21` [Compound 35, (1R,2R,3S,4R,5S)-4-(2-chloro-6-((2,2-difluoroethyl)amino)-9H-purin-9-yl)bicyclo[3.1.0]hexane-2,3-diol], the Ki came to 1.7 nM.
